The source made the active and inactive calls. The rule behind the calls is not given here.
Experiments:
Insulin receptor = Insulin receptor (Homo sapiens, UniProt P06213); experiment: Inhibition of human INSR using poly (Glu, Tyr)4:1 as substrate in presence of [gamma33P]-ATP by HotSpot assay
[1] = molecular target: Tyrosine-protein kinase CSK (Homo sapiens, UniProt P41240); experiment: Inhibition of human CSK using poly (Glu, Tyr)4:1 as substrate in presence of [gamma33P]-ATP by HotSpot assay
[2] = molecular target: Maternal embryonic leucine zipper kinase (Homo sapiens, UniProt Q14680); experiment: Inhibition of human MELK using KKLNRTLSFAEPG as substrate in presence of [gamma33P]-ATP by HotSpot assay
Ephrin type-B receptor 1 = Ephrin type-B receptor 1 (Homo sapiens, UniProt P54762); experiment: Inhibition of human EPHB1 using poly (Glu, Tyr)4:1 as substrate in presence of [gamma33P]-ATP by HotSpot assay
[3] = molecular target: BDNF/NT-3 growth factors receptor (Homo sapiens, UniProt Q16620); experiment: Inhibition of human NTRK2 using poly (Glu, Tyr)4:1 as substrate in presence of [gamma33P]-ATP by HotSpot assay
[4] = molecular target: Serine/threonine-protein kinase B-raf (Homo sapiens) (UniProt P15056); experiment: Inhibition of human BRAF at 1 uM using MEK1 as substrate in presence of [gamma33P]-ATP by HotSpot assay relative to control
[5] = molecular target: Calcium/calmodulin-dependent protein kinase type II subunit alpha (Homo sapiens) (UniProt Q9UQM7); experiment: Inhibition of human CAMK2A at 1 uM using KKALRRQETVDAL as substrate in presence of [gamma33P]-ATP by HotSpot assay relative to control
[6] = molecular target: Myotonin-protein kinase (Homo sapiens) (UniProt Q09013); experiment: Inhibition of human DMPK at 1 uM using KKRNRRLSVA as substrate in presence of [gamma33P]-ATP by HotSpot assay relative to control
[7] = molecular target: Homeodomain-interacting protein kinase 4 (Homo sapiens) (UniProt Q8NE63); experiment: Inhibition of human HIPK4 at 1 uM using MBP as substrate in presence of [gamma33P]-ATP by HotSpot assay relative to control
[8] = molecular target: Tyrosine-protein kinase ITK/TSK (Homo sapiens) (UniProt Q08881); experiment: Inhibition of human ITK at 1 uM using MBP as substrate in presence of [gamma33P]-ATP by HotSpot assay relative to control
[9] = molecular target: Mitogen-activated protein kinase kinase kinase 5 (Homo sapiens) (UniProt Q99683); experiment: Inhibition of human MAP3K5 at 1 uM using MBP as substrate in presence of [gamma33P]-ATP by HotSpot assay relative to control
[10] = molecular target: Mitogen-activated protein kinase kinase kinase 8 (Homo sapiens) (UniProt P41279); experiment: Inhibition of human MAP3K8 at 1 uM using MEK1 as substrate in presence of [gamma33P]-ATP by HotSpot assay relative to control
[11] = molecular target: Hepatocyte growth factor receptor (Homo sapiens, UniProt P08581); experiment: Inhibition of human MET at 1 uM using poly (Glu, Tyr)4:1 as substrate in presence of [gamma33P]-ATP by HotSpot assay relative to control
[12] = molecular target: Serine/threonine-protein kinase NLK (Homo sapiens) (UniProt Q9UBE8); experiment: Inhibition of human NLK at 1 uM using MBP as substrate in presence of [gamma33P]-ATP by HotSpot assay relative to control
[13] = molecular target: Lymphokine-activated killer T-cell-originated protein kinase (Homo sapiens) (UniProt Q96KB5); experiment: Inhibition of human PBK at 1 uM using MBP as substrate in presence of [gamma33P]-ATP by HotSpot assay relative to control
[14] = tested on: Platelet-derived growth factor receptor alpha (Homo sapiens), P16234 [V561D]; experiment: Inhibition of human PDGFRalpha V561D mutant at 1 uM using poly (Glu, Tyr)4:1 as substrate in presence of [gamma33P]-ATP by HotSpot assay relative to control
[15] = molecular target: Serine/threonine-protein kinase N2 (Homo sapiens) (UniProt Q16513); experiment: Inhibition of human PKN2 at 1 uM using LRRASLG as substrate in presence of [gamma33P]-ATP by HotSpot assay relative to control
[16] = molecular target: Ribosomal protein S6 kinase beta-2 (Homo sapiens) (UniProt Q9UBS0); experiment: Inhibition of human RPS6KB2 at 1 uM using KKRNRTLTK as substrate in presence of [gamma33P]-ATP by HotSpot assay relative to control
[17] = molecular target: SRSF protein kinase 1 (Homo sapiens) (UniProt Q96SB4); experiment: Inhibition of human SRPK1 at 1 uM using GRSRSRSRSR as substrate in presence of [gamma33P]-ATP by HotSpot assay relative to control
[18] = molecular target: SRSF protein kinase 2 (Homo sapiens) (UniProt P78362); experiment: Inhibition of human SRPK2 at 1 uM using GRSRSRSRSR as substrate in presence of [gamma33P]-ATP by HotSpot assay relative to control
[19] = molecular target: Tyrosine-protein kinase SYK (Homo sapiens) (UniProt P43405); experiment: Inhibition of human SYK at 1 uM using poly (Glu, Tyr)4:1 as substrate in presence of [gamma33P]-ATP by HotSpot assay relative to control
[20] = molecular target: Tyrosine-protein kinase Tec (Homo sapiens) (UniProt P42680); experiment: Inhibition of human TEC at 1 uM using poly (Glu, Tyr)4:1 as substrate in presence of [gamma33P]-ATP by HotSpot assay relative to control
[21] = molecular target: Dual specificity protein kinase TTK (Homo sapiens) (UniProt P33981); experiment: Inhibition of human TTK at 1 uM using MBP as substrate in presence of [gamma33P]-ATP by HotSpot assay relative to control
[22] = Average plasma concentration in human at 90 mg administered once a day; format: ADME; settings: in vivo
BaF3 = experiment: Antitumor activity against mouse BaF3 cells expressing native EML4-ALK implanted in mouse assessed as tumor regression at 25 mg/kg, po administered once daily and measured after 8 days relative to control; format: functional; settings: time 8 day
[23] = molecular target: Insulin-like growth factor 1 receptor (Homo sapiens, UniProt P08069)
Description: Inhibition of IGF-1R phosphorylation in IGF-1 stimulated human HepG2 cells preincubated with compound for 30 mins followed by IGF-1 stimulation for 10 mins by Immunoblot analysis

NCI-H2228 = settings: time 72 hrs
SU-DHL-1 = settings: time 72 hrs
[24] = tested on: EML4-ALK (Homo sapiens), Q9UM73+Q9HC35 [D1203N]; settings: BaF3, time 3-5 weeks
[25] = tested on: EML4-ALK (Homo sapiens), Q9UM73+Q9HC35 [L1196M]; settings: BaF3, dose 200.0 nmol/L, time 3-5 weeks

Chain of Ribosomal protein S6 kinase beta-2 (Homo sapiens) (Q9UBS0 whole entry): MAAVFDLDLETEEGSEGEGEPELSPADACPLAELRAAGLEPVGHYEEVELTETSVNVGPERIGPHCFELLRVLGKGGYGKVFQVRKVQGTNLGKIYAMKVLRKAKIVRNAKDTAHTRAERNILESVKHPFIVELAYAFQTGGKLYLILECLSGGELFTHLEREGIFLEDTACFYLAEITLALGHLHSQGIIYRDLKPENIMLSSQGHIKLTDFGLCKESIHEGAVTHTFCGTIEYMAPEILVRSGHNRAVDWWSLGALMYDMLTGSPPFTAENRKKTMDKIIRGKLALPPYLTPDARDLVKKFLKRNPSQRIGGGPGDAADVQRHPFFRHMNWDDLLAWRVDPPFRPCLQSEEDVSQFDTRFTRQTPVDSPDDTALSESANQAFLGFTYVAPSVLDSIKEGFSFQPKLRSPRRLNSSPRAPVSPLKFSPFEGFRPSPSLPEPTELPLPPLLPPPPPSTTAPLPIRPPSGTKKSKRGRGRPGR
Chain of Calcium/calmodulin-dependent protein kinase type II subunit alpha (Homo sapiens) (Q9UQM7 whole entry): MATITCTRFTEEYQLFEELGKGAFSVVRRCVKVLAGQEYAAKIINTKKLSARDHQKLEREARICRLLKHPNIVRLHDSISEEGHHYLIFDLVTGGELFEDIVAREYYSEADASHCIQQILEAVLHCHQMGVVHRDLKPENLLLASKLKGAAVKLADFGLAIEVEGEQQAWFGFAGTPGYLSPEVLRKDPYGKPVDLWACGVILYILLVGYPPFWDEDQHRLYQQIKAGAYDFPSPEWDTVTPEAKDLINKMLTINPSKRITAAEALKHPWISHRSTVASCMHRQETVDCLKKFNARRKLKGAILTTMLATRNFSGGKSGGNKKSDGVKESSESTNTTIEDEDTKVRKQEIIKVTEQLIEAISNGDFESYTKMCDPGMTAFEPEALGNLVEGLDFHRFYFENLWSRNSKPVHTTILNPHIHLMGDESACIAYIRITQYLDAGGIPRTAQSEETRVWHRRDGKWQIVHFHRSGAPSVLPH
Chain of Tyrosine-protein kinase Tec (Homo sapiens) (P42680 whole entry): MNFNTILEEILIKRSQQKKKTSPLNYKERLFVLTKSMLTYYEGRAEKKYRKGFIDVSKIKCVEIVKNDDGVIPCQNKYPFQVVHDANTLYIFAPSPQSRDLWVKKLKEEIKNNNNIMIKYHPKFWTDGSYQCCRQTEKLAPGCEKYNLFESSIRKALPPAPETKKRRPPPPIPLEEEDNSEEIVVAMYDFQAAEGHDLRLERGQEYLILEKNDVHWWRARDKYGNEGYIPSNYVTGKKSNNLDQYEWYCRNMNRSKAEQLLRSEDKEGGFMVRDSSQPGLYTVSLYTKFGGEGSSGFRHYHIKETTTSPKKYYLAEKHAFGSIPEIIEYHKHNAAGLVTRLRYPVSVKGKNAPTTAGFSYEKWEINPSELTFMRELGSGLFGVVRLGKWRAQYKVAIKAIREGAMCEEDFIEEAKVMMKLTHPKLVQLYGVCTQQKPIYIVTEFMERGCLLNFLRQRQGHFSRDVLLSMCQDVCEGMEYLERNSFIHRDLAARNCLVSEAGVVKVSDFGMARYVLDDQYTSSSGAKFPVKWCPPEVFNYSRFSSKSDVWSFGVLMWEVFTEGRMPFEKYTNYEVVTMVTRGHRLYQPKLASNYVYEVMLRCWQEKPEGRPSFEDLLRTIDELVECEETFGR
Chain of BDNF/NT-3 growth factors receptor (Q16620 whole entry): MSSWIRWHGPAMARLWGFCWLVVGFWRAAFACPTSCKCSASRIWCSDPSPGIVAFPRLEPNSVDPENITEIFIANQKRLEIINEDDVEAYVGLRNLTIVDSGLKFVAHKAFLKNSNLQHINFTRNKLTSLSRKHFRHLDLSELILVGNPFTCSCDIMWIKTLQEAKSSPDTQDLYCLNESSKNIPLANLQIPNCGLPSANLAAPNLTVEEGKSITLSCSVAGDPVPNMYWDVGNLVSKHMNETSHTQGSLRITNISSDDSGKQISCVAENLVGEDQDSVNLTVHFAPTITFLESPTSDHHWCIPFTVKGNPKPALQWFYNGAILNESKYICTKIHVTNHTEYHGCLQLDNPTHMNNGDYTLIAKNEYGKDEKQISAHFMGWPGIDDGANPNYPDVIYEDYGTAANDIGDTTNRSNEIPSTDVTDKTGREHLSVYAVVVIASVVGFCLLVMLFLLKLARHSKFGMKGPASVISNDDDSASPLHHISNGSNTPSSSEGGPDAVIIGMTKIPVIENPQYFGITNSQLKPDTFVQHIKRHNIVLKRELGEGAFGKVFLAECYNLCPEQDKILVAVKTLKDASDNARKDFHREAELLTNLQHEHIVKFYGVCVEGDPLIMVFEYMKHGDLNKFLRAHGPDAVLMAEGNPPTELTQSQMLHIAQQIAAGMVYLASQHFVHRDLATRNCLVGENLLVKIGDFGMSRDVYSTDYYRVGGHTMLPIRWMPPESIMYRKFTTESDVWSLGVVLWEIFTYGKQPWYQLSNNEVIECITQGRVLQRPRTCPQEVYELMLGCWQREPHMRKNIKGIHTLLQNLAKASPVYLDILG
Chain of Insulin receptor (P06213 28-758 limits assumed): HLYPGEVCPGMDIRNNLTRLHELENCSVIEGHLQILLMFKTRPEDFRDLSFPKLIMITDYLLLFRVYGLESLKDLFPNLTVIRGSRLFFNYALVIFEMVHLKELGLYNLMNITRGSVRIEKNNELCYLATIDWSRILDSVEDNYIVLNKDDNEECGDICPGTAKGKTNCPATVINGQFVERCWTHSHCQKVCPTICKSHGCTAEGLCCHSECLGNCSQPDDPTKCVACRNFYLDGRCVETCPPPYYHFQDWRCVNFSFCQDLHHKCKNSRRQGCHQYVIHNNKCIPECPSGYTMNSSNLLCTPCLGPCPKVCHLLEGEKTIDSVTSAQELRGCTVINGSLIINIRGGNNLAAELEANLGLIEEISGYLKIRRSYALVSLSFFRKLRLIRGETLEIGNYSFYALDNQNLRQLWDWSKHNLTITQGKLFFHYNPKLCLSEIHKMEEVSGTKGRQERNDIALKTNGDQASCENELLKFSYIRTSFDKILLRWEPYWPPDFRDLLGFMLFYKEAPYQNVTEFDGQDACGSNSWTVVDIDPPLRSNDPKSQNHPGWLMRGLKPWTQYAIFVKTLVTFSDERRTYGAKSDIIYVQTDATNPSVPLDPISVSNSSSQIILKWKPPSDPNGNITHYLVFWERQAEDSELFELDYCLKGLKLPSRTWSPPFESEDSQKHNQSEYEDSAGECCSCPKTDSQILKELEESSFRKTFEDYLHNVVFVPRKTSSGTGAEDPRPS
Chain of Insulin receptor (P06213 763-1382 limits assumed): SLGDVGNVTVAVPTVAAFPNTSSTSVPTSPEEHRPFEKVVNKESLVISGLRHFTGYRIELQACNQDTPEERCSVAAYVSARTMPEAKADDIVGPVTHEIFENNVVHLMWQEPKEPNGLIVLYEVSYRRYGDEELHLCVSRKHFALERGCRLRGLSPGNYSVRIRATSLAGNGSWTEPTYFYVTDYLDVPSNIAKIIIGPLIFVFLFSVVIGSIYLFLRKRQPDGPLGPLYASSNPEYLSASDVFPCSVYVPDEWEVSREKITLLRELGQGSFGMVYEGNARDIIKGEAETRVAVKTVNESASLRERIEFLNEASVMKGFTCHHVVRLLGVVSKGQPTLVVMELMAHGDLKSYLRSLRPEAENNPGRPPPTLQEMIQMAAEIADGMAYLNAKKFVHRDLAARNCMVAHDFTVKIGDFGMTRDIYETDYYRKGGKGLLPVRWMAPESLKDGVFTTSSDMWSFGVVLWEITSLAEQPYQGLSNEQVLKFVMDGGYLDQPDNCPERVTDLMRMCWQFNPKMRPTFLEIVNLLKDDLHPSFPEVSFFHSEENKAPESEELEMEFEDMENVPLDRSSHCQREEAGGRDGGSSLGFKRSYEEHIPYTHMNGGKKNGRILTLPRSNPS
Chain of Serine/threonine-protein kinase N2 (Homo sapiens) (Q16513 whole entry, looked up): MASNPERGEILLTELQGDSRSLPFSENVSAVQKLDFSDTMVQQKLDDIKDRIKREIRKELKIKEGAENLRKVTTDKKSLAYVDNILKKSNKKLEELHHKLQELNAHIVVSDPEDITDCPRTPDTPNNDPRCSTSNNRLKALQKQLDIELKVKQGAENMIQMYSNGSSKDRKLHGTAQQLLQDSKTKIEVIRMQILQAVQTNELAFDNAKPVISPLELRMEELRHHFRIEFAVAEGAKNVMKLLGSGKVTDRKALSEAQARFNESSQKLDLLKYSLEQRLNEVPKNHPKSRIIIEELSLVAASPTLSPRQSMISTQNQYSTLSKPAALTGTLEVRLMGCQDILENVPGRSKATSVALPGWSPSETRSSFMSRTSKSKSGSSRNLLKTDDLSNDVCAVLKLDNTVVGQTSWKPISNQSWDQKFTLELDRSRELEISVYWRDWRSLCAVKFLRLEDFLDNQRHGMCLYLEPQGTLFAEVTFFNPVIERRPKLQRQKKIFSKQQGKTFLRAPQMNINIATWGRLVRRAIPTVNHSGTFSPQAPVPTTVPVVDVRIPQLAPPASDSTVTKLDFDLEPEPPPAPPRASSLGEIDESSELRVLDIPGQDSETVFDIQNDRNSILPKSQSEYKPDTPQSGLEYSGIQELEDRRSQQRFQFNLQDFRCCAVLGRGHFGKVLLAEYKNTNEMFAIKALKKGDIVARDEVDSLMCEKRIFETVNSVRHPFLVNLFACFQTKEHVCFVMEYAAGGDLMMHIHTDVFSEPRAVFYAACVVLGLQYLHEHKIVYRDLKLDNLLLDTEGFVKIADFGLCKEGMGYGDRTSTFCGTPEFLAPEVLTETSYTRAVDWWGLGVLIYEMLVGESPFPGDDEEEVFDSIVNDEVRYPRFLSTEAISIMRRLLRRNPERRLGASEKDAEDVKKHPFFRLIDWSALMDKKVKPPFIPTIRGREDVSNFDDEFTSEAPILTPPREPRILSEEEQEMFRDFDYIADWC

COc1cc(N2CCC(N3CCN(C)CC3)CC2)ccc1Nc1ncc(Cl)c(Nc2ccccc2P(C)(C)=O)n1 [BRIGATINIB]
IC50 (Insulin receptor): 160 nM | IC50 [1]: 329 nM | IC50 [2]: 895 nM | IC50 (Ephrin type-B receptor 1): > 1000 nM | IC50 [3]: > 1000 nM | inhibition [4]: < 90% | inhibition [5]: < 90% | inhibition [6]: < 90% | inhibition [7]: < 90% | inhibition [8]: < 90% | inhibition [9]: < 90% | inhibition [10]: < 90% | inhibition [11]: < 90% | inhibition [12]: < 90% | inhibition [13]: < 90% | inhibition [14]: < 90% | inhibition [15]: < 90% | inhibition [16]: < 90% | inhibition [17]: < 90% | inhibition [18]: < 90% | inhibition [19]: < 90% | inhibition [20]: < 90% | inhibition [21]: < 90% | Cave [22]: 582 nM | Activity (BaF3): 100% | IC50 [23]: 148 nM | GI50 (NCI-H2228): 10 nM | GI50 (SU-DHL-1): 9 nM | IC90 [24]: 276 nM | inhibition [25]: inactive
